Legend:
human TGR5 (h-TGR5) = molecular target: T1, human TGR5 (h-TGR5) (Homo sapiens, UniProt Q8TDU6); assay: TGR5/CRE-Luciferiase Assay (HEK 293 hTGR5/CRE-Luc cells); assay type: cell-based; settings: h-TGR5 CRE-Luc EC50, Table 1; read-out: CRE-Luc (EC50)
T1 construct: expressed in transfected cells
T1 sequence (Q8TDU6 1-330): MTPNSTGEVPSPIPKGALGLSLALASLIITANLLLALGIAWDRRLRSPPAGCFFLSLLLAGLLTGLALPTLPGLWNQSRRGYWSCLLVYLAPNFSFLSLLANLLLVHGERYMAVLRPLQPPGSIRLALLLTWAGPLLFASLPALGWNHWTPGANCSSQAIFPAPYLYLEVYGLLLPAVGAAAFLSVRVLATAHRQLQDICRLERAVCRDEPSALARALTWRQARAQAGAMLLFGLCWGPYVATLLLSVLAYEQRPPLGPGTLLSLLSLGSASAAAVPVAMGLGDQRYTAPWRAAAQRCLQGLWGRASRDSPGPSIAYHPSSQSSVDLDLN
How it was run: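 HEK293 cells stably carrying hTGR5 and a CRE-luciferase reporter were exposed to serially diluted compounds (diluted in DMEM with 5% DMSO) for 6 h. Cells were then lysed in luciferase buffer, luminescence was read, and EC50 values were derived from dose-response curves.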

h-TGR5 = molecular target: T2, h-TGR5 (Homo sapiens, UniProt Q8TDU6); assay: TGR5 cAMP Assay using Cisbio cAMP Dynamic2 htrf kit (hTGR5CRE-luc HEK 293 cells); assay type: cell-based; settings: h-TGR5 cAMP EC50, Table 1; read-out: cAMP (EC50)
T2 construct: expressed in transfected cells
T2 sequence (Q8TDU6 1-330): T1 sequence (Q8TDU6 1-330)
Experimental: Compounds were diluted in DPBS with 5% DMSO (8-point serial dilution by half logs) in a 96-well plate and 1 μL was transferred to a 384-well assay plate in quadruplicate. The d2-cAMP and anti-cAMP Ab-cryptate stock solution were prepared as per the instructions in the Cisbio™ (Bedford, Mass.) kit. […] Cells were adjusted to 0.44×10^6 cells/ml followed by addition of IBMX to a final concentration of 0.5 mM. The cells were then mixed with d2-cAMP solution (7.1 mL cells+100 ul d2-cAMP) and 4000 cells (9 μL) were transferred to each well of the 384-well assay plate. Cells without d2-cAMP were added to eight wells as a negative control. The plate was covered and incubated at room temp for 30 min. Then 10 μL of Ab-cryptate solution was added to each well of the assay plate and incubated for 1 hr. The plate was read on an EnVision™ plate reader (Perkin-Elmer, Waltham, Mass.) and the DeltaF value was calculated as per the instructions in the Cisbio™ kit.
In the following tables, EC50 values determined according to the TGR5 cAMP Assay described herein (cAMP); EC50 values determined according to the TGR5/CRE-Luciferiase Assay described herein (CRE-Luc). […] The following compounds in Tables 1 and 2 were made by using procedures described in the above Schemes and Examples, and, where applicable, by making any necessary substitutions of known materials that one skilled in the art would ordinarily understand how to do.

SMILES | EC50 (human TGR5 (h-TGR5)) | EC50 (h-TGR5)
COc1cc(C(C)(C)c2cnc(SCc3c(F)cc(OCCCNC(=N)N)cc3F)n2-c2ccc(F)cc2)ccc1Cl [1-(3-{[4-({[5-{1-[4-chloro-3-(methyloxy)phenyl]-1-methylethyl}-1-(4-fluorophenyl)-1H-imidazol-2-yl]thio}methyl)-3,5-difluorophenyl]oxy}propyl)guanidine] | < 100 nM | < 100 nM
COc1cc(-n2c(C(C)(C)c3ccc(F)c(Cl)c3)cnc2SCc2c(F)cc(OCCNC(=N)N)cc2F)ccc1F [1-[2-({4-[({5-[1-(3-chloro-4-fluorophenyl)-1-methylethyl]-1-[4-fluoro-3-(methyloxy)phenyl]-1H-imidazol-2-yl}thio)methyl]-3,5-difluorophenyl}oxy)ethyl]guanidine] | < 100 nM | < 100 nM
CC(=O)N1CCC(CSc2ncc(C(C)(C)c3ccc(Cl)c(Cl)c3)n2-c2ccc(F)cc2)CC1 [1-acetyl-4-[({5-[1-(3,4-dichlorophenyl)-1-methylethyl]-1-(4-fluorophenyl)-1H-imidazol-2-yl}thio)methyl]piperidine] | < 100 nM | 100 to 1000 nM
COc1cc(C(C)(C)c2cnc(SCc3c(F)cc(C#CCNC(=N)N)cc3F)n2-c2ccc(F)cc2)ccc1Cl [1-{3-[4-({[5-{1-[4-chloro-3-(methyloxy)phenyl]-1-methylethyl}-1-(4-fluorophenyl)-1H-imidazol-2-yl]thio}methyl)-3,5-difluorophenyl]prop-2-yn-1-yl}guanidine] | < 100 nM | < 100 nM
COc1cc(C(C)(C)c2cnc(SCc3c(F)cc(CCCNC(=N)N)cc3F)n2-c2ccc(F)cc2)ccc1Cl [1-{3-[4-({[5-{1-[4-chloro-3-(methyloxy)phenyl]-1-methylethyl}-1-(4-fluorophenyl)-1H-imidazol-2-yl]thio}methyl)-3,5-difluorophenyl]propyl}guanidine] | < 100 nM | < 100 nM
COc1cc(C(C)(C)c2cnc(SCc3c(F)cc(CCCCNC(=N)N)cc3F)n2-c2ccc(F)cc2)ccc1Cl [1-{4-[4-({[5-{1-[4-chloro-3-(methyloxy)phenyl]-1-methylethyl}-1-(4-fluorophenyl)-1H-imidazol-2-yl]thio}methyl)-3,5-difluorophenyl]butyl}guanidine] | < 100 nM | < 100 nM
COc1cc(C(C)(C)c2cnc(SCc3c(F)cc(CCCCCNC(=N)N)cc3F)n2-c2ccc(F)cc2)ccc1Cl [1-{5-[4-({[5-{1-[4-chloro-3-(methyloxy)pheny1]-1-methylethyl}-1-(4-fluorophenyl)-1H-imidazol-2-yl]thio}methyl)-3,5-difluorophenyl]pentyl}guanidine] | < 100 nM | < 100 nM
CC(C)(c1ccc(Cl)c(Cl)c1)c1cnc(SCc2cc(S(N)(=O)=O)c(Cl)cc2Cl)n1-c1ccc(F)cc1 [2,4-dichloro-5-[({5-[1-(3,4-dichlorophenyl)-1-methylethyl]-1-(4-fluorophenyl)-1H-imidazol-2-yl}thio)methyl]benzenesulfonamide] | < 100 nM | 100 to 1000 nM
COc1cc(C(C)(C)c2cnc(SCc3ccc(C#CCNC(=N)N)c(C(=O)O)c3)n2-c2ccc(F)cc2)ccc1Cl [2-(3-{[amino(imino)methyl]amino}prop-1-yn-1-yl)-5-({[5-{1-[4-chloro-3-(methyloxy)phenyl]-1-methylethyl}-1-(4-fluorophenyl)-1H-imidazol-2-yl]thio}methyl)benzoic acid] | < 100 nM | < 100 nM
COc1cc(-n2c(C(C)(C)c3ccc(Cl)c(Cl)c3)cnc2SCc2ccc(C#CCNC(=N)N)c(C(=O)O)c2)ccc1F [2-(3-{[amino(imino)methyl]amino}prop-1-yn-1-yl)-5-[({5-[1-(3,4-dichlorophenyl)-1-methylethyl]-1-[4-fluoro-3-(methyloxy)phenyl]-1H-imidazol-2-yl}thio)methyl]benzoic acid] | 100 to 1000 nM | 100 to 1000 nM
COc1cc(C(C)(C)c2cnc(SCc3ccc(CCCNC(=N)N)c(C(=O)O)c3)n2-c2ccc(F)cc2)ccc1Cl [2-(3-{[amino(imino)methyl]amino}propyl)-5-({[5-{1-[4-chloro-3-(methyloxy)phenyl]-1-methylethyl}-1-(4-fluorophenyl)-1H-imidazol-2-yl]thio}methyl)benzoic acid] | < 100 nM | 100 to 1000 nM
COc1cc(-n2c(C(C)(C)c3ccc(Cl)c(Cl)c3)cnc2SCc2ccc(CCCNC(=N)N)c(C(=O)O)c2)ccc1F [2-(3-{[amino(imino)methyl]amino}propyl)-5-[({5-[1-(3,4-dichlorophenyl)-1-methylethyl]-1-[4-fluoro-3-(methyloxy)phenyl]-1H-imidazol-2-yl}thio)methyl]benzoic acid] | 100 to 1000 nM | 100 to 1000 nM
CCN(CC)CCS(=O)(=O)N1CCC(CSc2ncc(C(C)(C)c3ccc(Cl)c(Cl)c3)n2-c2ccc(F)cc2)CC1 [2-({4-[({5-[1-(3,4-dichlorophenyl)-1-methylethyl]-1-(4-fluorophenyl)-1H-imidazol-2-yl}thio)methyl]piperidin-1-yl}sulfonyl)-N,N-diethylethanamine] | 100 to 1000 nM | 100 to 1000 nM
CC(C)(c1ccc(Cl)c(Cl)c1)c1cnc(CCc2c(F)cc(C(=O)NCCS(=O)(=O)O)cc2Cl)n1-c1ccc(F)cc1 [2-({[3-chloro-4-(2-{5-[1-(3,4-dichlorophenyl)-1-methylethyl]-1-(4-fluorophenyl)-1H-imidazol-2-yl}ethyl)-5-fluorophenyl]carbonyl}amino)ethanesulfonic acid] | < 100 nM | < 100 nM
COc1cc(C(C)(C)c2cnc(SCc3c(F)cc(C(=O)NCCS(=O)(=O)O)cc3Cl)n2-c2ccc(F)cc2)ccc1Cl [2-({[3-chloro-4-({[5-{1-[4-chloro-3-(methyloxy)phenyl]-1-methylethyl}-1-(4-fluorophenyl)-1H-imidazol-2-yl]thio}methyl)-5-fluorophenyl]carbonyl}amino)ethanesulfonic acid] | < 100 nM | < 100 nM
COc1cc(C(C)(C)c2cnc(SCc3c(F)cc(S(=O)(=O)NCCS(=O)(=O)O)cc3Cl)n2-c2ccc(F)cc2)ccc1Cl [2-({[3-chloro-4-({[5-{1-[4-chloro-3-(methyloxy)phenyl]-1-methylethyl}-1-(4-fluorophenyl)-1H-imidazol-2-yl]thio}methyl)-5-fluorophenyl]sulfonyl}amino)ethanesulfonic acid] | < 100 nM | < 100 nM
COc1cc(C(C)(C)c2cnc(SCc3c(F)cc(C(=O)NCCS(=O)(=O)O)cc3F)n2-c2ccc(F)cc2)ccc1Cl [2-({[4-({[5-{1-[4-chloro-3-(methyloxy)phenyl]-1-methylethyl}-1-(4-fluorophenyl)-1H-imidazol-2-yl]thio}methyl)-3,5-difluorophenyl]carbonyl}amino) ethanesulfonic acid] | < 100 nM | < 100 nM
COc1cc(C(C)(C)c2cnc(SCc3c(F)cc(S(=O)(=O)NCCS(=O)(=O)O)cc3F)n2-c2ccc(F)cc2)ccc1Cl [2-({[4-({[5-{1-[4-chloro-3-(methyloxy)phenyl]-1-methylethyl}-1-(4-fluorophenyl)-1H-imidazol-2-yl]thio}methyl)-3,5-difluorophenyl]sulfonyl}amino)ethanesulfonic acid] | < 100 nM | < 100 nM

Source: patent US8785488B2 (Exelixis Patent Company LLC, priority 2009, dated 2014)
